From ChEMBL document CHEMBL3593192, “Synthesis and biological evaluation of novel histone deacetylases inhibitors with nitric oxide releasing activity” (Bioorg Med Chem, 2015)
The source made the active and inactive calls. No cut-off for these calls is given here.

Legend:
[1] = molecular target: Histone deacetylase (HDAC1 and HDAC2) (Homo sapiens, UniProt Q13547+Q92769); experiment: Inhibition of HDAC1/2 in human HeLa cells using Boc-Lys (acetyl)-AMC as substrate preincubated for 30 mins followed by substrate addition measured after 30 mins by fluorescence assay; format: cell-based
[2] = test system: HCT-116; experiment: cells; format: functional, cell-based; details: Homo sapiens, HCT-116, 48 h
[3] = test system: U-937; experiment: Cytotoxicity against human U937 cells assessed as inhibition of cell proliferation after 48 hrs by MTT assay; format: functional, cell-based; details: U-937, 48 h
[4] = test system: B16; experiment: cells; format: functional, cell-based; details: Mus musculus, B16, 48 h
Description: Cytotoxicity against mouse B16 cells assessed as inhibition of cell proliferation after 48 hrs by MTT assay

[5] = test system: PC-3; experiment: cells; format: functional, cell-based; details: Homo sapiens, PC-3, 48 h
Description: Cytotoxicity against human PC3 cells assessed as inhibition of cell proliferation after 48 hrs by MTT assay

[6] = test system: HeLa; experiment: cells; format: functional, cell-based; details: Homo sapiens, 48 h
Description: Cytotoxicity against human HeLa cells assessed as inhibition of cell proliferation after 48 hrs by MTT assay

[7] = test system: HEL; experiment: cells; format: functional, cell-based; details: Homo sapiens, 48 h
Description: Cytotoxicity against HEL cells assessed as inhibition of cell proliferation after 48 hrs by MTT assay

[8] = cells; format: functional, cell-based; details: Homo sapiens, KG-1, 48 h
Description: Cytotoxicity against human KG1 cells assessed as inhibition of cell proliferation after 48 hrs by MTT assay

[9] = cells; format: functional, cell-based, ES2; details: Homo sapiens, ES-2, 48 h
Description: Cytotoxicity against human ES2 cells assessed as inhibition of cell proliferation after 48 hrs by MTT assay

[10] = test system: HCT-116; experiment: Induction of nitric oxide production in human HCT116 cells at 100 uM after 5 hrs by Griess assay; format: functional, cell-based
[11] = test system: HCT-116; experiment: Cytotoxicity against nitric oxide scavenger hemoglobin-treated human HCT116 cells assessed as inhibition of cell proliferation at 2 uM after 24 hrs by MTT assay; format: functional, cell-based
[12] = test system: HCT-116; experiment: Cytotoxicity against human HCT116 cells assessed as inhibition of cell proliferation after 48 hrs by MTT assay in presence of SAHA; format: functional, cell-based; details: HCT-116, 48 h

| Compound | IC50 [1] [µM] | IC50 [2] [µM] | IC50 [4] [µM] | IC50 [5] [µM] | IC50 [6] [µM] | IC50 [7] [µM] | IC50 [8] [µM] | IC50 [9] [µM] | IC50 [3] [µM] | Activity [10] | inhibition [11] | IC50 [12] [µM] |
| --- | --- | --- | --- | --- | --- | --- | --- | --- | --- | --- | --- | --- |
| O=C(CCCCCCCOC(=O)c1cccc2c1no[n+]2[O-])NO | 0.1373 | > 80 | > 80 | > 80 | 34.2 | 12.1 | 0.53 | > 80 | > 80 | – | – | – |
| O=C(CCCCCCC(=O)Nc1ccccc1)NO [VORINOSTAT] | – | – | – | – | – | – | – | – | 4.82 | – | – | – |
| O=C(O)c1cccc2c1no[n+]2[O-] | > 1000 | 64 | – | – | – | – | – | – | – | Active | – | 8.52 |
| O=C(O)c1ccc2c(c1)no[n+]2[O-] | > 1000 | 55.8 | – | – | – | – | – | – | – | Active | – | 11.5 |
| O=C(CCCCCOC(=O)c1ccc2c(c1)no[n+]2[O-])NO | 0.437 | 3.36 | 30.2 | 12.4 | 17.3 | 11.6 | 3.69 | 20.6 | 33.4 | Active | – | – |
| O=C(CCCOC(=O)c1cccc2c1no[n+]2[O-])NO | 6.8072 | 16.2 | > 80 | 13.4 | 72 | 6.6 | 12.4 | 73.8 | 53.9 | – | – | – |

Now from value to compound, other results behind:

| IC50 [1] [µM] | IC50 [2] [µM] | IC50 [4] [µM] | IC50 [5] [µM] | IC50 [6] [µM] | IC50 [7] [µM] | IC50 [8] [µM] | IC50 [9] [µM] | Compound | IC50 [3] [µM] | Activity [10] | inhibition [11] | IC50 [12] [µM] |
| --- | --- | --- | --- | --- | --- | --- | --- | --- | --- | --- | --- | --- |
| 0.0184 | 1.09 | 4.97 | 0.95 | 9.18 | 1.26 | 0.37 | 5.07 | O=C(CCCCCCOC(=O)c1ccc2c(c1)no[n+]2[O-])NO | 12.4 | Active | inactive | – |
| 0.0128 | 1.09 | 18.2 | 9.37 | 27.2 | 3.71 | 2.98 | 21.2 | O=C(CCCCCCOC(=O)c1cccc2c1no[n+]2[O-])NO | 34.6 | Active | inactive | – |
| 0.017 | 2.81 | 27.9 | 16.9 | 42.1 | 3.74 | 12.4 | 66.3 | O=C(CCCCCOC(=O)c1cccc2c1no[n+]2[O-])NO | 21.6 | Active | – | – |
| 5.5697 | 2.06 | 22.2 | 6.58 | 17 | 2.09 | 4.02 | 27.1 | O=C(CCCOC(=O)c1ccc2c(c1)no[n+]2[O-])NO | 13 | – | – | – |
| 0.1804 | 2.29 | 7.99 | 1.39 | 5.31 | 1.5 | 5.21 | 9.23 | O=C(CCCCCCCOC(=O)c1ccc2c(c1)no[n+]2[O-])NO | 11.9 | Active | – | – |
| 0.2576 | 2.73 | 30.5 | 14.2 | 20.2 | 3.14 | 6.69 | 44.4 | O=C(CCCCOC(=O)c1cccc2c1no[n+]2[O-])NO | 11.3 | – | – | – |
| 2.207 | 2.63 | 24 | 12.7 | 15.9 | 1.21 | 8.19 | 25 | O=C(CCCCOC(=O)c1ccc2c(c1)no[n+]2[O-])NO | 19.9 | – | – | – |
